Assay results reported in EP2730584B1, “PROTEIN-P[…] OBTAINED FROM NERVOUS TISSUE OF HOOFED LIVESTOCK EMBRYOS, PROCESS FOR PREPARING SAME AND PHARMACEUTICAL COMPOSITION” (Aktsionernoe Obschestvo "Pharm-Sintez", priority 2011, dated 2012).

System: mice marrow cells
Procedure: The study objective was detection and quantitative estimate of cytogenetic (mutagenic) activity of pharmacologic substances in polychromatophil cells (PCC) of mammal marrow. The method is based on microscopic recording of cells with micronuclei.
The experiments were performed to 2 months old male and female F1 (CBAx C57BI6/J) cross-breed mice weighing 18-20 g. Each group included 6 animals. The animals were kept at 12 hours light pattern with free food and water access. Animal experiments for assessment of mutagenic properties of the PPNC with single and five-time dosing were conducted in compliance with official records. Three sessions of experiments were carried out with corresponding controls: therapeutic dose was tested on male animals with a single introduction; subtoxic dose was tested on male animals with a single introduction; therapeutic dose was tested on male animals with a single introduction; subtoxic dose was tested on male animals and female with five-time introduction. […] The PPNC dosing for assessment of mutagenic activity was calculated based on the maximum human recommended daily therapeutic dose (TD). […] In order to calculate an experiment dosing for mice, a conversion factor is recommended that takes into account a human or animal body surface area to weight ratio. In our study, it was 8.33. Therefore, the mice TD was approximately 8.33 x human TD (0.42 mg/kg).
As a subtoxic dose, 10mg/kg, the maximum possible in this experiment conditions dosing was used, as the substance was presented in 0.1 mg/ml concentration, and the normally used amount of substance for mice is 0.1 ml per 10 g.
Seven animal groups were formed: four experimental groups and three corresponding reference groups. The substance in the amount of 0.1 mg/kg was introduced five times at 24 hours interval to males and females. […]
Marrow cell preparations for micronuclei count were made by a standard method in compliance with common guidelines [20]. […] 2,000 polychromatophil cells from each animal were analyzed in encoded preparations. […]

## O=P1(N(CCCl)CCCl)NCCCO1 (stereo not drawn) [Cyclophosphamide, cyclophosphamide]
20 mg/kg intraperitoneally, male mice, 3.16 % in reference
  frequency of micronucleus cells: 62.1%
20 mg/kg intraperitoneally, male mice, P<0.001
  increased frequency of micronucleus cells: 19.6 times
20 mg/kg, compared to control P<0.005
  polychromatophilic to normochromatic erythrocytes ratio: found to shift to the latter
